Columns and labels:
MES-induced seizures = assay: Maximal electroshock-induced seizure (MES) test; type: in vivo, male Swiss albino mice; settings: for Minimum active dose (mg/kg) MES 0.5 h / Minimum active dose (mg/kg) MES 4 h: oral, lowest dose active in half or more of the mice, n = 6;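 on % protection MES 0.5 h: percent reduction of the test group versus the control group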;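 on % protection MES 4 h: percent reduction of the test group versus the control group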
induced seizures = assay: Anticonvulsant screening (MES and sc-PTZ), outcome recovery/death
Method: The test compounds and the standard drugs were dissolved in a 0.9% NaCl solution.
After half an hour of p.o. administration of the standard and the tested compounds, an electro-convulsometer (Outus, Ambala Cantt, India) delivered an electrical stimulus of sufficient intensity (25 mA, 500 V, 50 Hz, 0.2 s) via auricular electrodes to induce maximal seizures (Figure 1). To avoid the animal’s death, a drop of 0.9% saline was injected into the eye before the insertion of the electrodes. The tonic hind limb extension (i.e., the hind limbs of the animals outstretched 180° to the plane of the body axis) served as the basic principle for the occurrence of seizure activity. Abolition of the hind limb tonic extensor (HLTE) component of the seizure is defined as protection.

[1] = target: T1, human carbonic anhydrase IX (Homo sapiens, UniProt Q16790); assay: Human carbonic anhydrase IX colorimetric (p-nitrophenyl acetate) inhibition assay; type: biochemical; settings: mean ± SEM, three independent experiments in triplicate; read-out: CA IX (IC50)
T1 construct: purchased Sino Biological Inc, Beijing, China
Method: (§1) In brief, the reaction mixture contained 60 μL of 50 mM Tris-sulfate buffer (pH 7.6, containing 0.1 mM ZnCl2),10 μL (0.5 mM) of the test compound in 1% DMSO, and 10 μL of human carbonic anhydrase II and IX (Sino Biological Inc, Beijing, China). All the ingredients were mixed well and pre-incubated at 25°C for 10 min. Substrate p-nitrophenyl acetate was prepared as a 6 mM stock solution using 5% of acetonitrile in buffer and was used fresh. […] The total assay volume was adjusted to 100 μL and further incubated at 37°C for 30 min. Furthermore, all the ingredients were mixed properly, and absorbance was measured. […] The results reported are the mean of triplicate experiments (±SEM) and expressed IC50 values, which were calculated.

mice = assay: Rotarod neurotoxicity screening; type: in vivo, male Swiss albino mice; settings: for Neurotoxicity dose (mg/kg) 0.5 h / Neurotoxicity dose (mg/kg) 4 h: rotarod, oral doses 30, 100, 300 mg/kg
Method: The rotarod test, as described in the literature, was used to evaluate neurotoxicity (NT) in mice. In brief, six mice (one group) were trained to balance on a spinning rod (3 cm diameter and 6 rpm speed) to familiarize with the rotarod apparatus (Orchid Scientific, India). Each mouse underwent three trials to remain on the rotating rod for over 1 minute, with the experiment’s cutoff time (180 s) remaining constant. Different pre-oral (p.o.) doses of test and standard substances were administered to the trained animals.

PTZ-induced seizures = assay: Subcutaneous pentylenetetrazole (sc-PTZ) test; type: in vivo, male Swiss albino mice; settings: for Minimum active dose (mg/kg) Sc-PTZ 0.5 h / Minimum active dose (mg/kg) Sc-PTZ 4 h: oral, lowest dose active in half or more of the mice, n = 6;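 on % protection Sc-PTZ 0.5 h: percent reduction of the test group versus the control group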;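 on % protection Sc-PTZ 4 h: percent reduction of the test group versus the control group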
[2] = target: T2, human carbonic anhydrase II (Homo sapiens, UniProt P00918); assay: Human carbonic anhydrase II colorimetric (p-nitrophenyl acetate) inhibition assay; type: biochemical; settings: mean ± SEM, three independent experiments in triplicate; read-out: CA II (IC50)
T2 construct: purchased Sino Biological Inc, Beijing, China
Method: as §1

nitric oxide (NO) = assay: Nitrite/NO level (Greiss reagent) in brain homogenate of PTZ-treated mice; type: in vivo; settings: brain supernatant, compared to pentylenetetrazole-treated group, n = 6
Method: (§2) Brain tissue homogenates were prepared by isolating the brain (tissue) from the mice. Animals were euthanized under anesthesia by ketamine (80 mg/kg) and xylazine (5 mg/kg) after 8 h of inducing test and standard compounds. Mice’s brains (tissue) were quickly removed and weighed, and the whole brain samples were washed twice with ice-cold saline solution before being deposited in glass vials, labeled, and stored in a deep freeze (−30°C) until further use. Brain tissue samples were homogenized with a glass handheld homogenizer (PTFE coated). Tissue homogenates (10% w/v) were prepared in cold 0.1 M phosphate buffer (pH adjusted to 7.4) using a homogenizer. To test biological parameters, the supernatant from homogenates was centrifuged at 12,000 rpm for 20 min at 4°C.
Greiss reagent, a solution of 0.5% sulfonamide, 2.5% phosphoric acid, and 0.05% naphthyl ethylenediamine, was used to measure nitric oxide (NO) in TSH. Greiss reagent and TSH absorbance were measured at 540 nm, and the sodium nitrite standard curve was used to calculate the quantity of nitrite ([Wills, 1996]; [Green et al., 1982]).

GABA level = assay: Estimation of brain GABA level; type: in vivo, mice; settings: 30 mg/kg p.o., 2 h after administration, compared to pentylenetetrazole-treated group
Method: as §2, with “Animals were euthanized under anesthesia by ketamine (80 mg/kg) and xylazine (5 mg/kg) after 8 h of inducing test and standard compounds.” left out
The supernatant was put on silica gel 60 F254 aluminum sheets (10 cm × 10 cm) as the stationary phase, with the mobile phase consisting of water-saturated phenol. Prior to chromatography, TLC plates were prewashed with methanol and activated in an oven at 50°C for 5 min. The 0.1 mL supernatant solutions were applied in the form of bands on TLC plates. At room temperature, ascending development was carried out in a glass chamber saturated with the mobile phase for 30 min until a length of 80 mm was reached. The TLC plates that had been created were air-dried and treated with ninhydrin. […] The method’s specificity was determined by obtaining standard GABA samples and comparing their Rf values. […]

glutathione (GSH) = assay: Reduced glutathione level in brain of PTZ-treated mice; type: in vivo; settings: compared to pentylenetetrazole-treated group, n = 6
Method: as §2
The quantity of glutathione (GSH) in the brain was determined using the Sedlak and Lindsay method ([Pant et al., 2023]). In brief, brain tissue was deproteinized with an equal amount of 10% TCA and left at 4°C for 2 h. The contents were centrifuged for 15 min at 1200 rpm. The supernatant was mixed with 2 mL of 0.4 M Tris buffer (pH 8.9) containing 0.02 M EDTA (pH 8.9), and then 0.01 M DTNB was added. Finally, the mixture was diluted with 0.5 mL of distilled water to make a total volume of 3 mL, and absorbance was measured using a spectrophotometer at 412 nm, with results expressed as mg GSH/gm tissue.

[3] = system: total antioxidant capacity (TAC); assay: Total antioxidant capacity (FRAP) in brain tissue of PTZ-treated mice; type: in vivo; settings: compared to pentylenetetrazole-treated group, n = 6
Method: as §2
Total antioxidant capacity (TAC) was measured by mixing 200 μL of tissue samples with 3 mL of ferric-reducing antioxidant power (FRAP) reagent in a vortex. After incubating samples and blank tubes in a water bath for 30 min at 37°C, the absorbance of the samples was measured at 593 nm. For the standard curve, a stock solution of FeSO4.7H2O in distilled water was produced. Stock solution concentrations were 200, 400, 800, 1200, and 1600 μM. The curve results were given as mM of ferrous sulfate equivalent Fe2+/L ([Sun et al., 1988]).

Row | SMILES | % protection MES 0.5 h (MES-induced seizures; 100 mg/kg oral) | % protection MES 4 h (MES-induced seizures; 100 mg/kg oral) | % protection MES 0.5 h (MES-induced seizures; 300 mg/kg oral) | % protection MES 4 h (MES-induced seizures; 300 mg/kg oral) | Minimum active dose (mg/kg) MES 0.5 h (MES-induced seizures) | Minimum active dose (mg/kg) MES 4 h (MES-induced seizures) | Recovery/death (induced seizures; 30 mg/kg oral) | Recovery/death (induced seizures; 100 mg/kg oral) | Recovery/death (induced seizures; 300 mg/kg oral) | IC50 [1] | Neurotoxicity dose (mg/kg) 0.5 h (mice) | Neurotoxicity dose (mg/kg) 4 h (mice) | % protection Sc-PTZ 0.5 h (PTZ-induced seizures; 300 mg/kg oral) | % protection Sc-PTZ 4 h (PTZ-induced seizures; 300 mg/kg oral) | Minimum active dose (mg/kg) Sc-PTZ 0.5 h (PTZ-induced seizures) | Minimum active dose (mg/kg) Sc-PTZ 4 h (PTZ-induced seizures) | IC50 [2] | % protection MES 0.5 h (MES-induced seizures; 30 mg/kg oral) | % protection Sc-PTZ 0.5 h (PTZ-induced seizures; 30 mg/kg oral) | % protection Sc-PTZ 0.5 h (PTZ-induced seizures; 100 mg/kg oral) | other results
1 | COc1ccc(C(=O)Nc2nncs2)cc1OCCN1CCCC1 [Compound 7c, 4-Methoxy-3-(2-(pyrrolidin-1-yl)ethoxy)-N-(1,3,4-thiadiazol-2-yl)benzamide] | 24.61% | 32.30% | 35.38% | 49.23% | 100 mg/kg | 100 mg/kg | Recovery | Recovery | Recovery | 640 ± 40 nM | - (The indication - (dash) denotes a lack of action at the maximum dose supplied (300 mg/kg)) | - (The indication - (dash) denotes a lack of action at the maximum dose supplied (300 mg/kg)) | 35.38% | 36.75% | 300 mg/kg | 300 mg/kg | 690 ± 20 nM |  |  |  | 
2 | CCN(CC)CCOc1cc(C(=O)Nc2nncs2)ccc1OC [Compound 7d, 4-Methoxy-3-(2-(diethylamino)ethoxy)-N-(1,3,4-thiadiazol-2-yl)benzamide] | 41.53% | 63.07% | 61.53% | 76.92% | 30 mg/kg | 30 mg/kg | Recovery | Recovery | Recovery | 280 ± 30 nM | - (The indication - (dash) denotes a lack of action at the maximum dose supplied (300 mg/kg)) | - (The indication - (dash) denotes a lack of action at the maximum dose supplied (300 mg/kg)) | 61.46% | 75.18% | 30 mg/kg | 100 mg/kg | 480 ± 40 nM | 30.76% | 42.43% | 53.27% | NO (nitrite) level (nitric oxide (NO)): significantly reduced NO levels; % protection MES 4 h (MES-induced seizures; 30 mg/kg oral): 40%; GABA level in the brain (GABA level): significant increase in GABA levels; GSH level (glutathione (GSH)): significant increase in GSH levels; TAC level (FRAP) [3]: significant increase in TAC levels; Neurotoxicity (rotarod test), result in words (mice; at the highest dose (300 mg/kg)): without any sign of neurotoxicity; % protection Sc-PTZ 4 h (PTZ-induced seizures; 100 mg/kg oral): 62.85%
3 | COc1ccc(C(=O)Nc2nncs2)cc1OCCN(C)C [Compound 7e, 4-Methoxy-3-(2-(dimethylamino)ethoxy)-N-(1,3,4-thiadiazol-2-yl)benzamide] | 43.07% | 58.46% | 60% | 72.30% | 30 mg/kg | 100 mg/kg | Recovery | Recovery | Recovery | 610 ± 20 nM | - (The indication - (dash) denotes a lack of action at the maximum dose supplied (300 mg/kg)) | - (The indication - (dash) denotes a lack of action at the maximum dose supplied (300 mg/kg)) | 60% | 67.81% | 30 mg/kg | 100 mg/kg | 530 ± 30 nM | 36.92% | 34.26% | 43.07% | % protection Sc-PTZ 4 h (PTZ-induced seizures; 100 mg/kg oral): 61.04%
